Results taken from patent publication US20120213764A1, “NOVEL METHOD FOR THE PRODUCTION OF A ANTIMICROBIAL PEPTIDE” (B.R.A.I.N. BIOTECHNOLOGY RESEARCH AND INFORMATION NETWORK AG, priority 2009, published 2012).

How the values were obtained:
[1] = system: E. coli, methicillin-resistant Staphylococcus aureus, Staphylococcus epidermidis and Candida albicans; settings: cited from earlier work
[2] = system: Escherichia coli and Staphylococcus aureus; experiment: Antimicrobial activity assay-1, colony-forming units (CFU) assay; format: cell-based; settings: for reduction of bacteria (colony-forming units): 50-100 μg/ml peptide, 37° C. for 2-4 hours, 10 mM sodium phosphate buffer/10 mM NaCl pH 7.0
Description: Antimicrobial assays were performed using the colony-forming units (CFU) assay as previously described. The antibacterial activity of DCD-derived peptides was tested against the following bacterial strains: Escherichia coli and Staphylococcus aureus. Bacterial cultures were grown to mid-exponential growth phase and washed three times with 10 mM sodium phosphate buffer/10 mM NaCl (pH 7.0). Bacterial concentration was estimated photometrically at 600 nm. Absorbance of 1.0 corresponded to 8.56×10^8/ml for E. coli, 1.97×10^8/ml for S. aureus.
After dilution to a concentration of 10^6 CFU/ml, 10 μl of the dilutions were incubated at 37° C. for 2-4 hours with the respective peptide diluted in water in a total volume of 30 μl in 10 mM sodium phosphate buffer containing 10 mM NaCl (pH 7.0). After incubation, cells were diluted 1:100 in 10 mM sodium phosphate buffer containing 10 mM NaCl (pH 7.0) and 90 μl of the diluted bacterial suspension were plated in triplicates on blood agar. Bacterial colonies were counted after incubation for 18-24 hours at 37° C. The antimicrobial activity was calculated using [(cell survival after peptide incubation)/(cell survival in buffer without peptide)×100]. The LC90 describes the lethal concentration of the current peptide in μg/ml or M which leads to 90% reduction of colony-forming units compared to the buffer control. The assay was carried out with 50-100 μg/ml DCD1L and DCD1.

[3] = set-up: species or system human; settings: in vivo
Description: Line 1-3: DCD1L dissolved in 300 mM NaCl, 10 mM NaH2PO4, pH 4.0 and incubated on skin for 0, 2 and 4 hours; Line 4-6: DCD1L dissolved in 300 mM NaCl, 10 mM NaH2PO4, pH 6.5 and incubated on skin for 0, 2 and 4 hours; […] and incubated on skin for 0, 2 and 4 hours. As controls are the recombinantly produced DCD1 and DCD1L peptides.
(A) 2 h, (B) 4 h, (C) 19 h. A total ion count chromatogram […] is shown in black and two single ion chromatograms for m/z 785 and m/z 805 corresponding to DCD1 and DCD1L respectively are shown.
For testing in vivo processing, the DCD1L peptide was dissolved in buffers (300 mM NaCl, 10 mM NaH2PO4) varying in pH (4, 6.5, and 9) and incubated on forearm. Therefore a construction composed of cardboard containing five ceramic rings was created. This construction was fixed on forearm with tape and ceramic rings were filled with 100 μl (˜140 μg) DCD1L. Finally an elastic foil was used to surround the whole construction. The incubation on skin varied from one to four hours before removing the samples from skin. Afterwards the peptide samples were analyzed by SDS PAGE (FIG. 5) and HPLC-MS (FIGS. 6 A and B) and also further incubated at room temperature in vitro (FIG. 6 C). […] This kind of processing was also analyzed by SDS PAGE and HPLC-MS.

[4] = system: Escherichia coli, Staphylococcus aureus, and Micrococcus luteus; experiment: Antimicrobial activity assay-2, zone of inhibition on LB agar; format: cell-based; settings: peptide in 40% ACN/0.06% FA spotted in 10 μl on LB agar, 37° C. over night; FIG. 4 against S. aureus
Description: DCD1 was dissolved in 0.06% FA (2-5) or 40% ACN/0.06% FA (7-10). 1. 0.06% FA; 2. 5 μg DCD1; 3. 10 μg DCD1; 4. 30 μg DCD1; 5. 60 μg DCD1; 6.40% ACN/0.06% FA; 7. 5 μg DCD1; 8. 10 μg DCD1; 9. 30 μg DCD1; 10. 60 μg DCD1.
(§1) The antimicrobial activity of DCD1 and DCD1L peptides were tested against the following bacterial strains: Escherichia coli, Staphylococcus aureus, and Micrococcus luteus, isolated from skin. Bacterial cultures were grown to mid-exponential growth phase and bacterial concentration was estimated photometrically at 578 nm. Absorbance of 1.0 corresponded to 8.56×10^8/ml for E. coli, 1.97×10^8/ml for S. aureus. After dilution to a concentration of OD578nm 0.01 (˜10^6 CFU/ml), 100 μl of the cells were plated on LB agar. Afterwards different concentrations of the peptide dissolved in 40% ACN/0.06% FA were spotted on the plates in a total volume of 10 μl. As control 10 μl of 40% ACN/0.06% FA was used. The plates were incubated at 37° C. over night. After incubation the zone of inhibition was determined and the antimicrobial activity was calculated in dependence on the peptide concentration.

S. aureus = experiment: Antimicrobial activity assay-2 with in vivo produced DCD1; format: cell-based; settings: ~28 μg spotted, in 40% ACN/0.06% FA, S. aureus OD578nm 0.01 on LB agar
Description: DCD1 was dissolved in 40% ACN/0.06% FA. 1. 24 μg recombinantly produced DCD1 2. 24 μg in vivo produced DCD1; 3. 10 μl 40% ACN/0.06% FA;
as §1
To determine the antimicrobial activity, the in vivo produced DCD1 was lyophilized and dissolved in 40% ACN/0.06% FA. For testing its activity ˜28 μg DCD1 was spotted in LB agar plates containing 100 μl S. aureus (OD578nm 0.01) (see chapter Antimicrobial activity assay—2). As control 40% ACN/0.06% FA was spotted.

Row | Substance | antimicrobial activity against several microorganisms [1] | reduction of bacteria (colony-forming units) [2] | antimicrobial activity (inventors' finding, summary statement) ([2]; no conditions given at the place) | conversion of DCD1L into DCD1 ([3]; pH 4) | incubation time after which processing of DCD1L to DCD1 was complete ([3]; pH 9) [h] | antimicrobial activity (zone of inhibition) [4] | antimicrobial activity (inhibition zone) of DCD1 produced from DCD1L on skin (S. aureus)
1 | SEQ ID NO: 5: peptide of amino acids 63 to 85 of dermcidin (SSLLEKGLDGAKKAVGGLGKLGK; homo sapiens) | have antimicrobial activity |  |  |  |  |  | 
2 | DCD1L: 48 aa peptide, amino acids 63 to 110 of dermcidin, recombinantly produced (SSLLEKGLDGAKKAVGGLGKLGKDAVEDLESVGKGAVHDVKDVLDSVL; homo sapiens) | have antimicrobial activity | only the addition of DCD1 led to a reduction of diverse bacteria | does not have antimicrobial activity | always converted into DCD1 in a pH- and time-dependent manner | 16 | only activity emanating from DCD1 was detectable | 
3 | SEQ ID NO: 4: peptide of amino acids 63 to 87 of dermcidin (SSLLEKGLDGAKKAVGGLGKLGKDA; homo sapiens) | have antimicrobial activity |  |  |  |  |  | 
4 | DCD1: 47 aa peptide, amino acids 63 to 109 of dermcidin, recombinantly produced or formed from DCD1L on skin (SSLLEKGLDGAKKAVGGLGKLGKDAVEDLESVGKGAVHDVKDVLDSV; homo sapiens) | have antimicrobial activity | led to a reduction of diverse bacteria |  |  |  | activity emanating from DCD1 was detectable | is antimicrobial active
